In ChEMBL document CHEMBL1201862, “PubChem BioAssay data set” (2004):
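Step 1: Grow cells in 96-well plates. Step 2: Expose to compound for 48 hours at 5 concentrations. Step 3: Interpolate endpoints linearly; if unreached, use highest concentration. The concentration for 50% growth inhibition is given as GI50.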 Activity calls are given as the source filed them. Cut-off read from the data, not from the text of the source: active = GI50 up to about 1.1 µM and inactive = higher.

What was measured:
Assay in all cases: inhibition of tumour cell growth, NCI panel, 48 h
[1] = test system: SW-620
[2] = test system: SK-MEL-2
[3] = test system: A549
[4] = test system: A498
[5] = test system: SN12C
[6] = test system: SK-MEL-5
[7] = test system: Malme-3M
[8] = test system: KM12
[9] = test system: SF-268
[10] = test system: EKVX
[11] = test system: OVCAR-4
[12] = test system: SK-MEL-28
[13] = test system: HOP-92
[14] = test system: SR
[15] = test system: MDA-MB-435
[16] = test system: NCI/ADR-RES
[17] = test system: Hs-578T
[18] = test system: MDA-MB-231
[19] = test system: MCF7
[20] = test system: MDA-N

Structure (SMILES)	GI50 [1]	GI50 [2]	GI50 [3]	GI50 [4]	GI50 [5]	GI50 [6]	GI50 [7]	GI50 [8]	GI50 [9]	GI50 [10]	GI50 [11]	GI50 [12]	GI50 [13]	GI50 [14]	GI50 [15]	GI50 [16]	GI50 [17]	GI50 [18]	GI50 [19]	GI50 [20]
CC(C)c1cccc(=O)c(O)c1 [HINOKITIOL]	5.9 µM (inactive)	12.1 µM (inactive)	9.35 µM (inactive)	44.1 µM (inactive)	11.2 µM (inactive)	24.5 µM (inactive)	12.6 µM (inactive)	12.4 µM (inactive)	6.37 µM (inactive)	17.3 µM (inactive)	7.23 µM (inactive)	18.9 µM (inactive)	15.9 µM (inactive)	2.84 µM (inactive)						
O=C1C2=C(CC3C(C2)C3(Br)Br)C(=O)C2=C1CC1C(C2)C1(Br)Br (configuration not stated)		> 100 µM (inactive)	> 100 µM (inactive)	> 100 µM (inactive)	> 100 µM (inactive)	> 100 µM (inactive)	> 100 µM (inactive)	> 100 µM (inactive)	> 100 µM (inactive)	> 100 µM (inactive)	> 100 µM (inactive)	> 100 µM (inactive)	> 100 µM (inactive)	> 100 µM (inactive)						
O=[N+]([O-])c1ccc2nc(=S)[nH]n2c1	> 100 µM (inactive)	> 100 µM (inactive)	> 100 µM (inactive)	> 100 µM (inactive)	> 100 µM (inactive)	> 100 µM (inactive)	> 100 µM (inactive)	> 100 µM (inactive)	> 100 µM (inactive)	> 100 µM (inactive)	> 100 µM (inactive)		> 100 µM (inactive)	> 100 µM (inactive)	> 100 µM (inactive)	> 100 µM (inactive)	> 100 µM (inactive)	> 100 µM (inactive)	> 100 µM (inactive)	
Cc1cc(=O)n2c(cc3cccccc32)n1	> 100 µM (inactive)	> 100 µM (inactive)	> 100 µM (inactive)	> 100 µM (inactive)	> 100 µM (inactive)			> 100 µM (inactive)	> 100 µM (inactive)	> 100 µM (inactive)	> 100 µM (inactive)	> 100 µM (inactive)		> 100 µM (inactive)						
CCOC(=O)c1ccc(NC(=O)SCCC(=O)O)cc1	> 100 µM (inactive)	> 100 µM (inactive)	> 100 µM (inactive)	> 100 µM (inactive)	> 100 µM (inactive)			> 100 µM (inactive)	0.426 µM (active)	0.841 µM (active)		> 100 µM (inactive)		> 100 µM (inactive)						
CC(C)(C)NC(=O)C12C3C4C1C1C2C3C41I (configuration not stated)	> 100 µM (inactive)	> 100 µM (inactive)	> 100 µM (inactive)	> 100 µM (inactive)	> 100 µM (inactive)		> 100 µM (inactive)	> 100 µM (inactive)				> 100 µM (inactive)	84.1 µM (inactive)	> 100 µM (inactive)						
COc1ccc([C@@H]2C[C@@H]3C(=O)OC(=O)[C@@H]3c3c2c2ccccc2n3C)cc1	> 100 µM (inactive)	> 100 µM (inactive)	> 100 µM (inactive)	> 100 µM (inactive)	> 100 µM (inactive)		> 100 µM (inactive)	> 100 µM (inactive)	> 100 µM (inactive)	> 100 µM (inactive)	> 100 µM (inactive)	> 100 µM (inactive)	> 100 µM (inactive)	> 100 µM (inactive)						
CC1(C)O[C@@H]2[C@@H](COC(C)(C)O[C@H]2C2SCCCS2)O1	> 100 µM (inactive)	> 100 µM (inactive)	> 100 µM (inactive)	> 100 µM (inactive)	> 100 µM (inactive)	> 100 µM (inactive)	> 100 µM (inactive)	> 100 µM (inactive)	> 100 µM (inactive)		> 100 µM (inactive)	> 100 µM (inactive)	92.7 µM (inactive)		> 100 µM (inactive)	> 100 µM (inactive)		> 100 µM (inactive)	> 100 µM (inactive)	> 100 µM (inactive)
COC(=O)C1=CC(=O)C(C(=O)Nc2ccc(OC)cc2)C(c2ccccc2)O1 (configuration not stated)	40.5 µM (inactive)	> 81.7 µM (inactive)	28.1 µM (inactive)	29.2 µM (inactive)	47.5 µM (inactive)	25.7 µM (inactive)	> 53 µM (inactive)	> 100 µM (inactive)	17.8 µM (inactive)	44.1 µM (inactive)	28.4 µM (inactive)	37.8 µM (inactive)	24 µM (inactive)	44.5 µM (inactive)						
Cc1cc(C)nc(NS(=O)(=O)c2ccc(NC(=O)c3cccc4c(=O)c5ccccc5[nH]c34)cc2)n1	23.5 µM (inactive)	> 10 µM (inactive)	22.7 µM (inactive)	18.2 µM (inactive)	15.9 µM (inactive)	11.7 µM (inactive)	17.9 µM (inactive)	17 µM (inactive)	21.8 µM (inactive)	26.5 µM (inactive)	18.5 µM (inactive)	18.8 µM (inactive)	20 µM (inactive)	24.8 µM (inactive)						
COC(=O)C(C(=O)OC)C1CCCC(=O)C1 (configuration not stated)	> 100 µM (inactive)	< 0.01 µM (active)	> 100 µM (inactive)	> 100 µM (inactive)	> 100 µM (inactive)	> 100 µM (inactive)	> 100 µM (inactive)	> 100 µM (inactive)	> 100 µM (inactive)	> 100 µM (inactive)	> 100 µM (inactive)	> 100 µM (inactive)	> 100 µM (inactive)	> 100 µM (inactive)						
COc1ccc(OC)c2c1ccc1c(C)c3ccccc3c(C)c12		> 100 µM (inactive)		61 µM (inactive)	22.9 µM (inactive)		> 100 µM (inactive)		> 100 µM (inactive)		79.4 µM (inactive)	> 100 µM (inactive)		36.6 µM (inactive)	> 100 µM (inactive)			16 µM (inactive)	20.9 µM (inactive)	79.1 µM (inactive)
O=c1c(Br)cc2nc3ccccc3sc-2c1Br	68.1 µM (inactive)	> 100 µM (inactive)	> 94.8 µM (inactive)	> 100 µM (inactive)	> 100 µM (inactive)	29.5 µM (inactive)	> 100 µM (inactive)	> 100 µM (inactive)	72.1 µM (inactive)	> 74.6 µM (inactive)	24 µM (inactive)	> 100 µM (inactive)	50 µM (inactive)	53.5 µM (inactive)						
O=C1C(=O)N(c2ccc(Cl)cc2Cl)C(=O)C(=O)C1c1nc2ccccc2o1	> 100 µM (inactive)	> 100 µM (inactive)	> 100 µM (inactive)	> 100 µM (inactive)	> 100 µM (inactive)	> 100 µM (inactive)	> 100 µM (inactive)	> 100 µM (inactive)	> 100 µM (inactive)	> 100 µM (inactive)	> 100 µM (inactive)	> 100 µM (inactive)	> 100 µM (inactive)	> 100 µM (inactive)						
[N-]=[N+]=Nc1ccccc1Oc1ccccc1	> 100 µM (inactive)	> 100 µM (inactive)	> 100 µM (inactive)	> 100 µM (inactive)	> 100 µM (inactive)	> 100 µM (inactive)		> 100 µM (inactive)	> 100 µM (inactive)	> 100 µM (inactive)	> 100 µM (inactive)	> 100 µM (inactive)		> 100 µM (inactive)						
CCOC(=O)/C(=C\NC[C@@H](C)O)c1nc2ccccc2[nH]1	> 100 µM (inactive)		62.4 µM (inactive)	55 µM (inactive)	93.1 µM (inactive)	29.5 µM (inactive)	> 100 µM (inactive)	57.4 µM (inactive)	60.7 µM (inactive)	> 100 µM (inactive)	83.8 µM (inactive)	57.3 µM (inactive)	72.9 µM (inactive)	0.0473 µM (active)	> 100 µM (inactive)	44.3 µM (inactive)			60.8 µM (inactive)	> 100 µM (inactive)
CCOC(=O)c1cnc2c(ccc3ncccc32)c1OCC	> 100 µM (inactive)	> 100 µM (inactive)	> 100 µM (inactive)	> 100 µM (inactive)	> 100 µM (inactive)	> 100 µM (inactive)	> 100 µM (inactive)	> 100 µM (inactive)	> 100 µM (inactive)	84.3 µM (inactive)	> 100 µM (inactive)	> 100 µM (inactive)		70.6 µM (inactive)						
O=C(Cn1ccnc1[N+](=O)[O-])NCCO [ETANIDAZOLE]	> 100 µM (inactive)	> 100 µM (inactive)	> 100 µM (inactive)	> 100 µM (inactive)	> 100 µM (inactive)	> 100 µM (inactive)	> 100 µM (inactive)	> 100 µM (inactive)	> 100 µM (inactive)	> 100 µM (inactive)	> 100 µM (inactive)	> 100 µM (inactive)	> 100 µM (inactive)	> 100 µM (inactive)	> 100 µM (inactive)	> 100 µM (inactive)	> 100 µM (inactive)	> 100 µM (inactive)	> 100 µM (inactive)	
COc1cc2c(cc1OCCCCCOc1cc3c(cc1OC)C(=O)N1CCC[C@H]1CN3)N=C[C@@H]1CCCN1C2=O	4.25 µM (inactive)	3.27 µM (inactive)	5.46 µM (inactive)		0.509 µM (active)	2.79 µM (inactive)	5.93 µM (inactive)	2.92 µM (inactive)	3.57 µM (inactive)	39.6 µM (inactive)	25.6 µM (inactive)	11.2 µM (inactive)	17.2 µM (inactive)	0.249 µM (active)	6.85 µM (inactive)	23.4 µM (inactive)	6.75 µM (inactive)	2.49 µM (inactive)	15.8 µM (inactive)	
